Reference: patent publication US8987275B2, “Indazole compounds and their uses” (Dana-Farber Cancer Institute, Inc., priority 2010, dated 2015)

Legend:
Assay type in all cases: cell-based
EML4-Alk = biological target: T1, EML4-Alk (Homo sapiens, UniProt Q9UM73); assay: IC50 of compounds against kinase target EML4-Alk (Table I)
T1 construct: EML4 (N-terminal fusion partner); human EML4 would be Q9HC35; the other entry of the earlier key: EML4 (Q9HC35, Echinoderm microtubule-associated protein-like 4)
T1 sequence (Q9UM73 1058-1620 limits assumed): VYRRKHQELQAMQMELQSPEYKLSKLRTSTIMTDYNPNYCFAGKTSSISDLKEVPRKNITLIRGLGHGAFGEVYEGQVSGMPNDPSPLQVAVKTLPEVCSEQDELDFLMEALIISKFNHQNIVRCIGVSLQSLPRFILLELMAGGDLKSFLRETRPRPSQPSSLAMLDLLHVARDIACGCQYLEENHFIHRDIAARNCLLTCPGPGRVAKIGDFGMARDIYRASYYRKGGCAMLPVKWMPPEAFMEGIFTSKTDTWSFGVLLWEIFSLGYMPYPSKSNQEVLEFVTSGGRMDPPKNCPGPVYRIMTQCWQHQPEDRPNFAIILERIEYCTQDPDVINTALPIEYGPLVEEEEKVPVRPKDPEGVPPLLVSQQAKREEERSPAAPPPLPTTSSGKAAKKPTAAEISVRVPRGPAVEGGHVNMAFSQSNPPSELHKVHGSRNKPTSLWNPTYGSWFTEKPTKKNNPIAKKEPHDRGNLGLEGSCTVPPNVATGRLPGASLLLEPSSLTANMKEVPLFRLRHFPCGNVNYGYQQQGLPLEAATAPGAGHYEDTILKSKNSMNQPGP
Method: (§1) All compounds are initially dissolved in DMSO to make 10 mM stock solutions, and then are serially diluted to obtain final concentrations for in vitro experiments.
(§2) All cell lines are cultured with 5% CO2 at 37° C. in RPMI (Mediatech, Inc., Herndon, Va.) with 10% fetal calf serum (FCS) and supplemented with 1% L-glutamine. Parental Ba/F3 cells are similarly cultured with 15% WEHI-conditioned medium as a source of IL-3. Transfected cell lines are cultured in media supplemented with 1 mg/ml G418.

Bcr-Abl = biological target: T2, Bcr-Abl (Homo sapiens, UniProt P00519); assay: IC50 of compounds against kinase target Bcr-Abl (Table I)
T2 construct: BCR (N-terminal fusion partner, p210 form, B2A2 junction); expressed in transfected cells; host or cells: Ba/F3.p210 (or 32D.p210) murine hematopoietic cells; the other entry of the earlier key: BCR (P11274, Breakpoint cluster region protein)
Method: as §1
(§3) Ba/F3.p210 cells are obtained by transfecting the IL-3-dependent marine hematopoietic Ba/F3 cell line with a pGD vector containing p210BCR-ABL (B2A2) cDNA (Daley and Baltimore, 1988; Sattler et al., 1996; Okuda et al., 1996). Murine hematopoietic 32D cells are transduced with retrovirus to express p210 Bcr-ABL (32D.p210 cells) (Matulonis et al., 1993); the 32D-T315I cell line is transfected by electroporation with the imatinib resistant BCR-ABL construct (pCI-neo Mammalian Expression Vector; Promega (#E1841) harboring the point mutation T315I (Weisberg et al., 2005). Ba/F3 cells are stably transfected by electroporation with imatinib-resistant BCR-ABL constructs (pCI-neo Mammalian Expression Vector; Promega (#E1841) harboring the point mutations T315I, F317L, F486S, and M351T; transfectants are selected for neomycin resistance and IL-3-independent growth (Weisberg et al., 2005). Ba/F3 cells are stably transfected by electroporation with BCR-ABL point mutants identified in a random mutagenesis screen for BCR-ABL point mutants conferring resistance to nilotinib: Q252H, E292K, Y253C, Y253H, E255K, and V289L (Ray et al., 2007). Ba/F3 cells are made to express Tel-PDGFRβ as described by Golub et al., 1994, and Carroll et al., 1996. Constructs of D842V-PDGFRα and V561D-PDGFRα cDNA cloned into pcDNA3.1 are stably transfected into Ba/F3 cells by electroporation, and cells are selected for neomycin resistance and IL3-independent growth as described by Weisberg et al., 2006.
as §2

BCR-Abl T315I = biological target: T3, BCR-Abl T315I (Homo sapiens, UniProt P00519, T315I); assay: IC50 of compounds against kinase target T315I (Table I); conditions: read-out: IC50 T3151
T3 construct: BCR (N-terminal fusion partner of BCR-ABL); human BCR would be P11274; expressed in transfected cells; host or cells: Ba/F3 (or 32D) murine hematopoietic cells transfected with BCR-ABL T315I in pCI-neo; the other entry of the earlier key: BCR (P11274, Breakpoint cluster region protein)
Method: as §1, §3, §2

Tel-Alk = biological target: T4, Tel-Alk (Homo sapiens, UniProt Q9UM73); assay: IC50 of compounds against kinase target Tel-Alk (Table I)
T4 construct: TEL (ETV6); N-terminal fusion partner; human ETV6 would be P41212; the other entry of the earlier key: ETV6 (P41212, Transcription factor ETV6)
T4 sequence (Q9UM73 1116-1392 limits assumed): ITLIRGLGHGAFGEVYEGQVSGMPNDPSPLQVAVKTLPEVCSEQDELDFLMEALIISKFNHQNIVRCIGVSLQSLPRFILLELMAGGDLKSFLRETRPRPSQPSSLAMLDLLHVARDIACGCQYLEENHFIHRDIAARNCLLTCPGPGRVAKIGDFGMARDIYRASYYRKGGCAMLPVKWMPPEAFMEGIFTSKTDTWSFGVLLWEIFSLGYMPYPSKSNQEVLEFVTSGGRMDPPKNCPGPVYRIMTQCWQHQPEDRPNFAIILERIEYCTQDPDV
Method: as §1, §2

IC50 (EML4-Alk) | IC50 (Bcr-Abl) | IC50 (BCR-Abl T315I) | IC50 (Tel-Alk) | SMILES
4190 nM | 50 nM | 630 nM | 4480 nM | CCN1CCN(Cc2ccc(NC(=O)c3cccc(-c4ccc5c(NC)n[nH]c5c4)c3)cc2C(F)(F)F)CC1 [Compound 2, N-(4-((4-ethylpiperazin-1-yl)methyl)-3-(trifluoromethyl)phenyl)-3-(3-(methylamino)-1H-indazol-6-yl)benzamide]
8470 nM | 1190 nM | > 10000 nM | 1290 nM | Cc1ccc(C(=O)Nc2cccc(C(F)(F)F)c2)cc1-c1ccc2c(NC(=O)C3CC3)n[nH]c2c1 [Compound 15]
> 10000 nM | > 10000 nM | > 10000 nM | > 10000 nM | CCN1CCN(Cc2ccc(NC(=O)c3cccc(-c4ccc5c(NC(=O)C6CC6)n[nH]c5c4)c3)cc2)CC1 [Compound 9]
> 10000 nM | 780 nM | 7120 nM | > 10000 nM | CCN1CCN(Cc2ccc(NC(=O)c3cccc(-c4ccc5c(N)n[nH]c5c4)c3)cc2C(F)(F)F)CC1 [Compound 17]
500 nM | 360 nM | 1270 nM | 430 nM | O=C(Nc1cccc(-c2ccc3c(NC(=O)C4CC4)n[nH]c3c2)c1)C1CC1 [Compound 22]
360 nM | 530 nM | 240 nM | 320 nM | CCN1CCN(Cc2ccc(NC(=O)Nc3cccc(-c4ccc5c(NC(=O)C6CC6)n[nH]c5c4)c3)cc2C(F)(F)F)CC1 [Compound 21]
60 nM | 650 nM | 340 nM | 30 nM | CCN1CCN(Cc2ccc(NC(=O)c3cccc(-c4ccc5c(NC(=O)C6CC6)n[nH]c5c4)c3)cc2C(F)(F)F)CC1 [Compound 19]
> 10000 nM | > 10000 nM | > 10000 nM | > 10000 nM | CONC(=O)c1cccc(-c2ccc3c(NC(=O)C4CC4)n[nH]c3c2)c1 [Compound 11]
1670 nM | 470 nM | – | 1070 nM | CCN1CCN(Cc2ccc(NC(=O)c3cccc(-c4ccc5c(NC(=O)c6ccccc6)n[nH]c5c4)c3)cc2C(F)(F)F)CC1 [Compound 3]
> 10000 nM | 7080 nM | – | 7080 nM | COc1cc(Nc2ccc3c(NC(=O)C4CC4)n[nH]c3c2)cc(C(=O)Nc2ccc(CN3CCN(C)CC3)c(C(F)(F)F)c2)c1 [Compound 26]
> 10000 nM | 1440 nM | > 10000 nM | > 10000 nM | CN1CCN(c2ccc(C(=O)Nc3n[nH]c4cc(-c5cccc(C(=O)Nc6cccc(C(F)(F)F)c6)c5)ccc34)cc2)CC1 [Compound 28, 3-(3-(4-(4-methylpiperazin-1-yl)benzamido)-1H-indazol-6-yl)-N-(3-(trifluoromethyl)phenyl)benzamide]
> 10000 nM | > 10000 nM | > 10000 nM | > 10000 nM | CCN1CCN(Cc2ccc(C(=O)Nc3cccc(-c4ccc5c(NC(=O)C6CC6)n[nH]c5c4)c3)cc2C(F)(F)F)CC1 [Compound 23]
> 10000 nM | > 10000 nM | > 10000 nM | > 10000 nM | O=C(NC1CC1)c1cccc(-c2ccc3c(NC(=O)C4CC4)n[nH]c3c2)c1 [Compound 10]
> 10000 nM | > 10000 nM | > 10000 nM | > 10000 nM | O=C(NCCN1CCOCC1)c1cccc(-c2ccc3c(NC(=O)C4CC4)n[nH]c3c2)c1 [Compound 7]
> 10000 nM | 1570 nM | 3080 nM | > 10000 nM | CNc1n[nH]c2cc(-c3cccc(C(=O)Nc4cc(-n5cnc(C)c5)cc(C(F)(F)F)c4)c3)ccc12 [Compound 18]
400 nM | 90 nM | 310 nM | 270 nM | CCN1CCN(Cc2ccc(C(=O)Nc3cccc(-c4ccc5c(N)n[nH]c5c4)c3)cc2C(F)(F)F)CC1 [Compound 20]
> 10000 nM | 7180 nM | > 10000 nM | 7180 nM | Cc1ccc(C(=O)Nc2cccc(C(F)(F)F)c2)cc1Nc1ccc2c(NC(=O)C3CC3)n[nH]c2c1 [Compound 25, 3-(3-(cyclopropanecarboxamido)-1H-indazol-6-ylamino)-4-methyl-N-(3-(trifluoro-methyl)phenyl)benzamide]
2530 nM | 2380 nM | 3110 nM | 3750 nM | CCN1CCN(Cc2ccc(NC(=O)c3cccc(Nc4ccc5c(NC(=O)C6CC6)n[nH]c5c4)c3)cc2C(F)(F)F)CC1 [Compound 24]
1340 nM | 3070 nM | 310 nM | 2900 nM | Cc1cn(-c2cc(NC(=O)c3cccc(-c4ccc5c(NC(=O)C6CC6)n[nH]c5c4)c3)cc(C(F)(F)F)c2)cn1 [Compound 6]
> 10000 nM | > 10000 nM | – | > 10000 nM | O=C(Nc1cccc(C(F)(F)F)c1)c1cccc(-c2ccc3c(NC(=O)C4CC4)n[nH]c3c2)c1 [Compound 1]
1060 nM | 30 nM | 500 nM | 310 nM | CCN1CCN(Cc2ccc(NC(=O)c3ccc(C)c(-c4ccc5c(NC(=O)C6CC6)n[nH]c5c4)c3)cc2C(F)(F)F)CC1 [Compound 13]
> 10000 nM | > 10000 nM | > 10000 nM | > 10000 nM | O=C(Nc1n[nH]c2cc(-c3cccc(C(=O)N4CCC(N5CCCC5)CC4)c3)ccc12)C1CC1 [Compound 8]
1050 nM | 1900 nM | 2080 nM | 720 nM | CNC(=O)c1cccc(-c2ccc3c(NC(=O)C4CC4)n[nH]c3c2)c1 [Compound 12]
> 10000 nM | 220 nM | > 10000 nM | > 10000 nM | Cc1cn(-c2cc(NC(=O)c3ccc(C)c(-c4ccc5c(NC(=O)C6CC6)n[nH]c5c4)c3)cc(C(F)(F)F)c2)cn1 [Compound 16]
5600 nM | 1050 nM | > 10000 nM | 1440 nM | CCN1CCN(Cc2ccc(NC(=O)c3ccc(C)c(-c4ccc5c(NC(=O)C6CC6)n[nH]c5c4)c3)cc2)CC1 [Compound 14]
4220 nM | 70 nM | 1560 nM | 5260 nM | CCOC(=O)c1cccc(-c2ccc3c(NC(=O)c4ccc(N5CCN(C)CC5)cc4)n[nH]c3c2)c1 [Compound 27]
